The test system of assay [1] is renin obtained from pig's kidney. The assay is described as follows: Renin-inhibiting activity (method of Ikeda et al). Type of assay: biochemical.
Assay [2] concerns the target T1, pepsin from coats of pig's stomach (Sus scrofa, UniProt P00791).
T1 construct: using pepsin from coats of pig's stomach (P7012 manufactured by Sigma Chemical Inc.); purchased Sigma Chemical Inc. P7012; host or cells: pig stomach mucosa
The assay is described as follows: Pepsin-inhibiting activity (method of Anson et al). Type of assay: biochemical. The conditions noted are these: pepsin from coats of pig's stomach (P7012, Sigma). As to the method:
• (1) Pepsin-Inhibiting Activity: The pepsin-inhibiting activity was measured in terms of IC50 value according to the method of Anson et al [Journal of General Physiology 22, 79 (1938)] using pepsin from coats of pig's stomach (P7012 manufactured by Sigma Chemical Inc.).

This is an account of results in EP0236948A2, “Novel compounds WK-142 and process for preparing the same” (KITASATO KENKYUSHO, priority 1986, dated 1987).

Non-standard residues stand in square brackets, D forms with d. Residues, ends and D or L forms follow the SMILES beside them. *: point of attachment. Sta = CC(C)C[C@H](N)[C@@H](O)CC(=O)O; Isovaleryl = CC(C)CC(=O)*

In general, IC50 refers to the midpoint of a concentration-inhibition curve. Low readings indicate greater potency in that assay, high ones weaker potency in that assay.

T1 sequence (P00791 60-385): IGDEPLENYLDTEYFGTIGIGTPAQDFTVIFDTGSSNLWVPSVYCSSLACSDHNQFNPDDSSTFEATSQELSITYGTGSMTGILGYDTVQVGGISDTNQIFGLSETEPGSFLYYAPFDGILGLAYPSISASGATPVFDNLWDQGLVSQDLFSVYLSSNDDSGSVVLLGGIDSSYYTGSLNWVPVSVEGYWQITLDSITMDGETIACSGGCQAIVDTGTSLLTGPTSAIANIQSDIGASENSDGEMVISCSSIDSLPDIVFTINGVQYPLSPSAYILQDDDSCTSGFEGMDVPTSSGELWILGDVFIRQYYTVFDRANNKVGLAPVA

In the case of `CC(C)CC(=O)N[C@H](C(=O)N[C@H](C(=O)N[C@@H](CC(C)C)[C@@H](O)CC(=O)N[C@@H](C)C(=O)N[C@@H](CC(C)C)[C@@H](O)CC(=O)O)C(C)C)C(C)C` [pepstatin A] (Isovaleryl-VV[Sta]A[Sta]-OH), the values for the IC50 in assay [1] and in assay [2] were 470 nM and 3 nM, respectively.

For `CC(C)CC(=O)NC(C(=O)NC(C(=O)NC(CC(C)C)C(O)CC(=O)NC(C)C(=O)NC(Cc1ccccc1)C(O)CC(=O)O)C(C)C)C(C)C` (stereo not drawn) [compound A], the IC50 in assay [2] stood at 10 nM.
